According to ChEMBL document CHEMBL1148685, “3,4-Dihydro-1H-[1,3]oxazino[4,5-c]acridines as a new family of cytotoxic drugs” (Bioorg Med Chem Lett, 2006):
Active and inactive are the calls of the source. The rule behind the calls is not given here.

Columns and labels:
Type in all cases: functional, cell-based
Conditions in all cases: Homo sapiens
HT-29 [1] = test: Cytotoxicity against HT29 cell line
HT-29 [2] = test: Cytotoxicity against HT29 cells in hypoxic condition after 5 hrs
HT-29 [3] = test: Cytotoxicity against HT29 cells in presence of Escherichia coli nitroreductase

SMILES | IC50 (HT-29 [1]) | Activity (HT-29 [2]) | IC50 (HT-29 [3])
COc1cccc2c1C(=O)c1c(O)c3c(c(O)c1C2=O)C[C@@](O)(C(=O)CO)C[C@@H]3O[C@H]1C[C@H](N)[C@H](O)[C@H](C)O1 [DOXORUBICIN] | 2370 nM | – | –
c1ccc2nc3c4c(ccc3cc2c1)NCOC4 | 2250 nM | – | –
BrCC1Nc2ccc3cc4ccccc4nc3c2CO1 (stereo not given) | 1250 nM | – | –
CC1Nc2ccc3cc4ccccc4nc3c2CO1 (stereo not given) | 600 nM | – | –
O=[N+]([O-])c1ccc(C2Nc3ccc4cc5ccccc5nc4c3CO2)cc1 (stereo not given) | 2300 nM | inactive | 200 nM
c1ccc(C2Nc3ccc4cc5ccccc5nc4c3CO2)cc1 (stereo not given) | 400 nM | – | –
c1ccc(COCC2Nc3ccc4cc5ccccc5nc4c3CO2)cc1 (stereo not given) | 4000 nM | – | –
ClCC1Nc2ccc3cc4ccccc4nc3c2CO1 (stereo not given) | 1250 nM | – | –
